Laboratory results as given in ChEMBL document CHEMBL1201862, “PubChem BioAssay data set” (2004).
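Protocol summary: plate cells (96-well), add compound at 5 concentrations, incubate 48 h, interpolate endpoints linearly. The concentration for 50% growth inhibition is given as GI50.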 Activity calls are given as the source filed them. Cut-off read from the data, not from the text of the source: active = GI50 up to about 1.1 µM and inactive = higher.

How the values were obtained:
Test in all cases: NCI tumour cell line growth inhibition, 48 h
ACHN = tested on: ACHN
CAKI-1 = tested on: CAKI-1
CCRF-CEM = tested on: CCRF-CEM
HCT-15 = tested on: HCT-15
HL-60 = tested on: HL-60
HOP-62 = tested on: HOP-62
Hs-578T = tested on: Hs-578T
KM12 = tested on: KM12
MDA-MB-231 = tested on: MDA-MB-231
MDA-N = tested on: MDA-N
NCI-H460 = tested on: NCI-H460
NCI-H522 = tested on: NCI-H522
NCI/ADR-RES = tested on: NCI/ADR-RES
OVCAR-3 = tested on: OVCAR-3
PC-3 = tested on: PC-3
SF-295 = tested on: SF-295
SK-MEL-28 = tested on: SK-MEL-28
SK-MEL-5 = tested on: SK-MEL-5
EKVX = tested on: EKVX
SR = tested on: SR

| SMILES | GI50 (ACHN) | GI50 (CAKI-1) | GI50 (CCRF-CEM) | GI50 (HCT-15) | GI50 (HL-60) | GI50 (HOP-62) | GI50 (Hs-578T) | GI50 (KM12) | GI50 (MDA-MB-231) | GI50 (MDA-N) | GI50 (NCI-H460) | GI50 (NCI-H522) | GI50 (NCI/ADR-RES) | GI50 (OVCAR-3) | GI50 (PC-3) | GI50 (SF-295) | GI50 (SK-MEL-28) | GI50 (SK-MEL-5) | GI50 (EKVX) | GI50 (SR) |
| --- | --- | --- | --- | --- | --- | --- | --- | --- | --- | --- | --- | --- | --- | --- | --- | --- | --- | --- | --- | --- |
| C=CC[C@@H](N)C(=O)N(C)[C@@H](C)[C@@H](O)c1ccccc1 | > 100 µM (inactive) | > 100 µM (inactive) | > 100 µM (inactive) | > 100 µM | > 100 µM (inactive) | > 100 µM (inactive) | > 100 µM (inactive) | > 100 µM (inactive) | > 100 µM (inactive) | > 100 µM (inactive) | > 100 µM (inactive) | 12.4 µM (inactive) | > 100 µM (inactive) | > 100 µM (inactive) | > 100 µM (inactive) | > 100 µM (inactive) | > 100 µM (inactive) | > 100 µM (inactive) | – | – |
| N#CC(C#N)=C(N)/C(C#N)=C/c1ccc2ccccc2n1 | 17.2 µM (inactive) | 22.6 µM (inactive) | 24.1 µM (inactive) | 28.8 µM | – | 16 µM (inactive) | 21.7 µM (inactive) | 19.5 µM (inactive) | 23.7 µM (inactive) | 32.7 µM (inactive) | 85.7 µM (inactive) | – | 34.3 µM (inactive) | 13.5 µM (inactive) | 26.2 µM (inactive) | 21.3 µM (inactive) | 18.6 µM (inactive) | 23.8 µM (inactive) | > 100 µM (inactive) | – |
| O=C1N/C(=N/N=C/c2c[nH]c3ccccc23)N/C1=C\c1cccs1 | > 100 µM (inactive) | > 100 µM (inactive) | 4.44 µM (inactive) | > 100 µM | 19.4 µM (inactive) | > 100 µM (inactive) | > 100 µM (inactive) | 55.8 µM (inactive) | 40.4 µM (inactive) | > 100 µM (inactive) | > 100 µM (inactive) | > 100 µM (inactive) | 55.3 µM (inactive) | 30.7 µM (inactive) | 16.1 µM (inactive) | > 100 µM (inactive) | > 100 µM (inactive) | 70.3 µM (inactive) | > 100 µM (inactive) | – |
| Cc1ccc(S(=O)(=O)c2ccsc2NC(=O)c2ccccc2)cc1 | > 42.6 µM (inactive) | 40.7 µM (inactive) | – | > 100 µM | – | 17 µM (inactive) | 17.3 µM (inactive) | > 100 µM (inactive) | 14.8 µM (inactive) | 3.39 µM (inactive) | 41.1 µM (inactive) | > 100 µM (inactive) | 35.2 µM (inactive) | > 100 µM (inactive) | > 81.5 µM (inactive) | 22.1 µM (inactive) | > 100 µM (inactive) | 12.7 µM (inactive) | > 55.6 µM (inactive) | 4.79 µM (inactive) |
| CC(C)CNP(=O)(NCC(C)C)Oc1ccc(CC(NC(=O)OCc2ccccc2)C(=O)OCc2ccccc2)cc1 (configuration not stated) | 16.9 µM (inactive) | > 100 µM (inactive) | 4.99 µM (inactive) | 26.9 µM | – | 14.7 µM (inactive) | 28.4 µM (inactive) | 18.1 µM (inactive) | 17.7 µM (inactive) | 18.8 µM (inactive) | 18.1 µM (inactive) | 13.4 µM (inactive) | 28.8 µM (inactive) | 3.68 µM (inactive) | 17.1 µM (inactive) | 18.5 µM (inactive) | 15.4 µM (inactive) | 20.2 µM (inactive) | 34.8 µM (inactive) | 6.17 µM (inactive) |
| CSc1ncc2c(n1)sc1c(=O)n(-c3ccccc3)cnc12 | > 100 µM (inactive) | > 100 µM (inactive) | > 100 µM (inactive) | > 100 µM | – | > 100 µM (inactive) | > 100 µM (inactive) | > 100 µM (inactive) | > 100 µM (inactive) | > 100 µM (inactive) | > 100 µM (inactive) | > 100 µM (inactive) | > 100 µM (inactive) | > 100 µM (inactive) | > 100 µM (inactive) | > 100 µM (inactive) | > 100 µM (inactive) | > 100 µM (inactive) | – | > 100 µM (inactive) |
| O=C1OC2c3ccccc3C(=O)C2(c2ccccc2)N1c1ccccc1 (configuration not stated) | > 200 µM (inactive) | 121 µM (inactive) | 128 µM (inactive) | > 200 µM | 29.9 µM (inactive) | > 200 µM (inactive) | > 200 µM (inactive) | > 200 µM (inactive) | > 200 µM (inactive) | > 200 µM (inactive) | > 200 µM (inactive) | > 200 µM (inactive) | > 200 µM (inactive) | > 200 µM (inactive) | 183 µM (inactive) | > 200 µM (inactive) | > 200 µM (inactive) | > 200 µM (inactive) | > 200 µM (inactive) | – |
| CCc1n[nH]c(=O)n1-c1ccc2ccccc2c1 | > 100 µM (inactive) | > 100 µM (inactive) | > 100 µM (inactive) | > 100 µM | – | > 100 µM (inactive) | > 100 µM (inactive) | > 100 µM (inactive) | > 100 µM (inactive) | > 100 µM (inactive) | > 100 µM (inactive) | > 100 µM (inactive) | > 100 µM (inactive) | > 100 µM (inactive) | – | > 100 µM (inactive) | > 100 µM (inactive) | > 100 µM (inactive) | > 100 µM (inactive) | > 100 µM (inactive) |
| CCOC(=O)CNC(=O)C(CSC(=O)N(O)c1ccc(Cl)cc1)NC(=O)CCC(N)C(=O)OCC (configuration not stated) | > 50 µM (inactive) | > 50 µM (inactive) | > 50 µM (inactive) | > 50 µM | – | 24.3 µM (inactive) | 1.9 µM (inactive) | 12.2 µM (inactive) | 21 µM (inactive) | 36 µM (inactive) | > 50 µM (inactive) | – | > 50 µM (inactive) | > 50 µM (inactive) | > 50 µM (inactive) | > 50 µM (inactive) | 24.8 µM (inactive) | > 50 µM (inactive) | 12.5 µM (inactive) | 43.5 µM (inactive) |
| O[C@@]1(c2cccs2)c2cccc(Cl)c2[C@](O)(c2cccs2)c2cccc(Cl)c21 | 17 µM (inactive) | 24.4 µM (inactive) | 33.3 µM (inactive) | 21.2 µM | 16.6 µM (inactive) | 26.1 µM (inactive) | 12.8 µM (inactive) | 16.4 µM (inactive) | 17.3 µM (inactive) | 16.8 µM (inactive) | 16.9 µM (inactive) | 18.2 µM (inactive) | 22.6 µM (inactive) | 16.3 µM (inactive) | 19.1 µM (inactive) | 11.1 µM (inactive) | 17.3 µM (inactive) | 17.3 µM (inactive) | 16.8 µM (inactive) | – |
| CC(C)(C)OC(=O)C1C(=O)NC(=O)CC1CC(OCc1ccccc1)C(COCc1ccccc1)OCc1ccccc1 (configuration not stated) | 10.2 µM (inactive) | – | 11.6 µM (inactive) | 4.41 µM | 1.97 µM (inactive) | – | 14 µM (inactive) | – | – | 16.2 µM (inactive) | 13.4 µM (inactive) | – | 10 µM (inactive) | – | 6.44 µM (inactive) | 8.38 µM (inactive) | 29.4 µM (inactive) | 12.6 µM (inactive) | 16.5 µM (inactive) | 3.87 µM (inactive) |
